The record followed here is patent US20230278996A1, “YKL-40 INHIBITORS AND THEIR THERAPEUTIC APPLICATIONS” (Molecure S.A., priority 2022, published 2023).

Where a name gives a salt, the structure may show the parent alone. Bounds are passed on as bounds.

YKL-40, sequence (P36222 22-383): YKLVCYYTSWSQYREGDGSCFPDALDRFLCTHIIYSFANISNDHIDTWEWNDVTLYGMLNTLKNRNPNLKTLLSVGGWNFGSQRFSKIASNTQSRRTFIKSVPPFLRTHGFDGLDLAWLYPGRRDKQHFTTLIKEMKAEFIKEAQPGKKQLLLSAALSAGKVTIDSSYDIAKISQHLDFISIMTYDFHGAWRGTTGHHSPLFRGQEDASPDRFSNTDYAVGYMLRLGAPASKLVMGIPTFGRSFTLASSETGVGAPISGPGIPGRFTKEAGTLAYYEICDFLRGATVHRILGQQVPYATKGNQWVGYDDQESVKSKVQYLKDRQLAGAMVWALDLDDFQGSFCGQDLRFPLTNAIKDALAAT

The assay concerns the target YKL-40 (Homo sapiens (Human), UniProt P36222). Kind of assay: YKL-40:4 assay, competitive chitin binding site AlphaScreen. The note with it: competition with biotinylated compound 4 (20 nM), YKL-40-histag 2.5 nM. In general terms: Bead proximity is the source of the signal in Alpha formats.
On to `CC1CC(N2C[C@H](C)OC[C@@H]2Cc2ccc(Cl)cc2)CCN1c1cc(Cl)ccn1` (stereo partly drawn) [Example 34, (2S,5S)-5-(4-chlorobenzyl)-4-(1-(4-chloropyridin-2-yl)-2-methylpiperidin-4-yl)-2-methylmorpholine 2,2,2-trifluoroacetate], for which the IC50 (as a rule, the midpoint of a concentration-inhibition curve) is 0.1 to 1 µM. The figure for `C[C@H]1CN(C2CCN(c3ccccc3)CC2)[C@@H](Cc2ccc(Cl)cc2)CO1` [Example 37, (2S,5S)-5-(4-chlorobenzyl)-2-methyl-4-(1-phenylpiperidin-4-yl)morpholine dihydrochloride] is > 100 µM; for `Clc1ccc(C[C@H]2CN3CCC[C@H]3CN2C2CCN(c3ccccn3)CC2)cc1` [Example 38, (3S,8aS)-3-(4-chlorobenzyl)-2-(1-(pyridin-2-yl)piperidin-4-yl)octahydropyrrolo[1,2-α]pyrazine 2,2,2-trifluoroacetate] it is < 0.1 µM; for `Cc1ccnc(N2CCC(N3C[C@H](C)OC[C@@H]3Cc3ccc(Cl)cc3)CC2)n1` [Example 39, (2S,5S)-5-(4-chlorobenzyl)-2-methyl-4-(1-(4-methylpyrimidin-2-yl)piperidin-4-yl)morpholine dihydrochloride] it is 0.1 to 1 µM. The figure for `O[C@@H]1C[C@H]2CN(C3CCN(c4ncccn4)CC3)[C@@H](Cc3ccc(Cl)cc3)CN2C1` [Example 40, (3S,7R,8aS)-3-(4-chlorobenzyl)-2-(1-(pyrimidin-2-yl)piperidin-4-yl)octahydropyrrolo[1,2-α]pyrazin-7-ol 2,2,2-trifluoroacetate] is 0.1 to 1 µM; for `Cc1ccnc(N2CCC(N3C[C@@H]4C[C@@H](O)CN4C[C@@H]3Cc3ccc(Cl)cc3)CC2)n1` [Example 41, (3S,7R,8aS)-3-(4-chlorobenzyl)-2-(1-(4-methylpyrimidin-2-yl)piperidin-4-yl)octahydropyrrolo[1,2-α]pyrazin-7-ol 2,2,2-trifluoroacetate] it is 0.1 to 1 µM. Consider `O[C@H]1C[C@H]2CN(C3CCN(c4ncccn4)CC3)[C@@H](Cc3ccc(Cl)cc3)CN2C1` [Example 42, (3S,7S,8aS)-3-(4-chlorobenzyl)-2-(1-(pyrimidin-2-yl)piperidin-4-yl)octahydropyrrolo[1,2-α]pyrazin-7-ol 2,2,2-trifluoroacetate], for which the IC50 is 0.1 to 1 µM. Next, `Cc1ccnc(N2CCC(N3C[C@@H]4C[C@H](O)CN4C[C@@H]3Cc3ccc(Cl)cc3)CC2)n1` [Example 43, (3S,7S,8aS)-3-(4-chlorobenzyl)-2-(1-(4-methylpyrimidin-2-yl)piperidin-4-yl)octahydropyrrolo[1,2-α]pyrazin-7-ol 2,2,2-trifluoroacetate]: 0.1 to 1 µM; `C[C@H]1CN(C2CCN(c3ncc(F)cn3)CC2)[C@@H](Cc2ccc(Cl)cc2)CO1` [compound 46, (2S,5S)-5-(4-chlorobenzyl)-4-(1-(5-fluoropyrimidin-2-yl)piperidin-4-yl)-2-methylmorpholine 2,2,2-trifluoroacetate]: 1 to 10 µM.

In turn, `Cc1ccnc(N2CCC(N3C[C@H](C)OC[C@@H]3Cc3ccc(Cl)cc3)CC2)c1C#N` [compound 47, 2-(4-((2S,5S)-5-(4-chlorobenzyl)-2-methylmorpholino)piperidin-1-yl)-4-methyl-nicotinonitrile 2,2,2-trifluoroacetate] displayed an IC50 of 0.1 to 1 µM. Molecule `C[C@H]1CN(C2CCN(c3ncccc3C(F)(F)F)CC2)[C@@H](Cc2ccc(Cl)cc2)CO1` [compound 49, (2S,5S)-5-(4-chlorobenzyl)-2-methyl-4-(1-(3-(trifluoromethyl)pyridin-2-yl)-piperidin-4-yl)morpholine 2,2,2-trifluoroacetate] had an IC50 of 10 to 100 µM. The figure for `CN1C[C@H](Cc2ccc(Cl)cc2)N(C2CCN(c3cc(Cl)ccn3)CC2)C[C@@H]1CO` [compound 50, ((2R,5S)-5-(4-chlorobenzyl)-4-(1-(4-chloropyridin-2-yl)piperidin-4-yl)-1-methyl-piperazin-2-yl)methanol] is < 0.1 µM; for `C[C@H]1CN(C2C[C@H]3CC[C@@H](C2)N3c2cc(Cl)ccn2)[C@@H](Cc2ccc(Cl)cc2)CO1` (stereo partly drawn) [compound 58, (2S,5S)-5-(4-chlorobenzyl)-4-((1R,5S)-8-(4-chloropyridin-2-yl)-8-azabicyclo[3.2.1]octan-3-yl)-2-methylmorpholine 2,2,2-trifluoroacetate] it is > 100 µM.

`CO[C@@H]1CN(c2cc(Cl)ccn2)CC[C@@H]1N1C[C@H](C)OC[C@@H]1Cc1ccc(Cl)cc1` [compound 59, (2S,5S)-5-(4-chlorobenzyl)-4-((3R,4S)-1-(4-chloropyridin-2-yl)-3-methoxypiperidin-4-yl)-2-methylmorpholine 2,2,2-trifluoroacetate] showed an IC50 of 1 to 10 µM. The figure for `CO[C@H]1CN(c2cc(Cl)ccn2)CC[C@@H]1N1C[C@H](C)OC[C@@H]1Cc1ccc(Cl)cc1` [compound 60, (2S,5S)-5-(4-chlorobenzyl)-4-((3S,4S)-1-(4-chloropyridin-2-yl)-3-methoxypiperidin-4-yl)-2-methylmorpholine 2,2,2-trifluoroacetate] is 10 to 100 µM; for `CC(C)[C@H]1CN(C2CCN(c3ccccn3)CC2)[C@@H](Cc2ccc(Cl)cc2)CN1C` [compound 62, (2S,5S)-2-(4-chlorobenzyl)-5-isopropyl-4-methyl-1-(1-(pyridin-2-yl)piperidin-4-yl)piperazine 2,2,2-trifluoroacetate] it is < 0.1 µM; for `CN1CCN(C2CCN(c3ccccn3)CC2)[C@@H](Cc2ccc(Cl)cc2)C1` [compound 64, (S)-2-(4-chlorobenzyl)-4-methyl-1-(1-(pyridin-2-yl)piperidin-4-yl)piperazine 2,2,2-trifluoroacetate] it is 0.1 to 1 µM.

Regarding `C[C@H]1CN(C2CCN(c3ccnc(Cl)n3)CC2)[C@@H](Cc2ccc(Cl)cc2)CO1` [compound 66, (2S,5S)-5-(4-chlorobenzyl)-4-(1-(2-chloropyrimidin-4-yl)piperidin-4-yl)-2-methylmorpholine], the IC50 is > 100 µM. The figure for `C[C@H]1CN(C2CCN(c3ccnc(N)n3)CC2)[C@@H](Cc2ccc(Cl)cc2)CO1` [compound 67, 4-(4-((2S,5S)-5-(4-chlorobenzyl)-2-methylmorpholino)piperidin-1-yl)pyrimidin-2-amine 2,2,2-trifluoroacetate] is > 100 µM; for `CN(C)C(=O)OC[C@H]1CN(C2CCN(c3ncccn3)CC2)[C@@H](Cc2ccc(Cl)cc2)CO1` [compound 70, ((2R,5S)-5-(4-chlorobenzyl)-4-(1-(pyrimidin-2-yl)piperidin-4-yl)morpholin-2-yl)methyl dimethylcarbamate 2,2,2-trifluoroacetate] it is 1 to 10 µM; for `CN1CCN(C[C@H]2CN(C3CCN(c4ncccn4)CC3)[C@@H](Cc3ccc(Cl)cc3)CO2)CC1` [compound 71, (2S,5S)-5-(4-chlorobenzyl)-2-((4-methylpiperazin-1-yl)methyl)-4-(1-(pyrimidin-2-yl)piperidin-4-yl)morpholine 2,2,2-trifluoroacetate] it is 1 to 10 µM. The molecule `CN(C)CCN(C)C[C@H]1CN(C2CCN(c3ncccn3)CC2)[C@@H](Cc2ccc(Cl)cc2)CO1` [compound 72, N^1-(((2S,5S)-5-(4-chlorobenzyl)-4-(1-(pyrimidin-2-yl)piperidin-4-yl)morpholin-2-yl)methyl)-N^1,N^2,N^2-trimethylethane-1,2-diamine 2,2,2-trifluoroacetate] yielded an IC50 of 1 to 10 µM. The figure for `O[C@@H]1CCN(C[C@H]2CN(C3CCN(c4ncccn4)CC3)[C@@H](Cc3ccc(Cl)cc3)CO2)C1` [compound 73, (R)-1-(((2S,5S)-5-(4-chlorobenzyl)-4-(1-(pyrimidin-2-yl)piperidin-4-yl)morpholin-2-yl)methyl)pyrrolidin-3-ol 2,2,2-trifluoroacetate] is 1 to 10 µM; for `O[C@H]1CCN(C[C@H]2CN(C3CCN(c4ncccn4)CC3)[C@@H](Cc3ccc(Cl)cc3)CO2)C1` [compound 74, (S)-1-(((2S,5S)-5-(4-chlorobenzyl)-4-(1-(pyrimidin-2-yl)piperidin-4-yl)morpholin-2-yl)methyl)pyrrolidin-3-ol 2,2,2-trifluoroacetate] it is 1 to 10 µM; for `CC(=O)NC[C@H]1CN(C2CCN(c3ncccn3)CC2)[C@@H](Cc2ccc(Cl)cc2)CO1` [compound 75, N-(((2S,5S)-5-(4-chlorobenzyl)-4-(1-(pyrimidin-2-yl)piperidin-4-yl)morpholin-2-yl)methyl)acetamide 2,2,2-trifluoroacetate] it is 0.1 to 1 µM.

As for `O=C1c2ccccc2C(=O)N1C[C@H]1CN(C2CCN(c3ncccn3)CC2)[C@@H](Cc2ccc(Cl)cc2)CO1` [compound 76, 2-(((2R,5S)-5-(4-chlorobenzyl)-4-(1-(pyrimidin-2-yl)piperidin-4-yl)morpholin-2-yl)methyl)isoindoline-1,3-dione dihydrochloride], the IC50 was > 100 µM.

Molecule `O=C1CCC(=O)N1C[C@H]1CN(C2CCN(c3ncccn3)CC2)[C@@H](Cc2ccc(Cl)cc2)CO1` [compound 77, 1-(((2R,5S)-5-(4-chlorobenzyl)-4-(1-(pyrimidin-2-yl)piperidin-4-yl)morpholin-2-yl)methyl)pyrrolidine-2,5-dione 2,2,2-trifluoroacetate] registered an IC50 of 1 to 10 µM. The figure for `O=C1CNC(=O)N1C[C@H]1CN(C2CCN(c3ncccn3)CC2)[C@@H](Cc2ccc(Cl)cc2)CO1` [compound 78, 3-(((2R,5S)-5-(4-chlorobenzyl)-4-(1-(pyrimidin-2-yl)piperidin-4-yl)morpholin-2-yl)methyl)imidazolidine-2,4-dione 2,2,2-trifluoroacetate] is 1 to 10 µM; for `Clc1ccc(C[C@H]2COc3ccccc3CN2C2CCN(c3ccccn3)CC2)cc1` [compound 81, (S)-3-(4-chlorobenzyl)-4-(1-(pyridin-2-yl)piperidin-4-yl)-2,3,4,5-tetrahydrobenzo[f][1,4]oxazepine hydrochloride] it is > 100 µM; for `CN1CCN(C[C@H]2CN(C3CCN(c4cc(Cl)ccn4)CC3)[C@@H](Cc3ccc(Cl)cc3)CN2C)CC1` [compound 83, (2S,5S)-2-(4-chlorobenzyl)-1-(1-(4-chloropyridin-2-yl)piperidin-4-yl)-4-methyl-5-((4-methylpiperazin-1-yl)methyl)piperazine 2,2,2-trifluoroacetate] it is < 0.1 µM.
